# Source: patent US11654136B2, “Phosphoinositide 3-kinase inhibitor with a zinc binding moiety” (Curis, Inc., priority 2011, dated 2023)
# Like-named read-outs stand apart in the source and are kept apart here.
# Legend:
# [1] = system: Salmonella typhimurium TA98; experiment: Mini-Salmonella/mammalian-microsome reverse mutation assay TA98; details: for Revertants per well TA98, Mean: * positive increase
# Procedure: (§1) The tester strains used in the mutagenicity assay were Salmonella typhimurium tester strains TA98 (for detecting frame-shift reverse mutation) and TA100 (for detecting point reverse mutation). The assay was conducted in both the presence and absence of S9 mixture along with concurrent vehicle (DMSO, 20 μl/well) and positive controls in duplicate using 6-well plates. […] A reproducible two-fold increase (>2× of vehicle control) of revertant colonies over the daily average control value is considered a positive response of gene mutation for each strain.
# (§2) 2-nitrofluorene and sodium azide served as the positive controls in the absence of S9 for TA98 and TA100 respectively. 2-Aminoanthracene served as the positive controls in the presence of S9 for TA98 and TA100.
# [2] = system: Salmonella typhimurium TA100; details: for Revertants per well TA100, Mean: * positive increase
# Procedure: as §1, §2
# Raf, MEK, and ERK = experiment: Western blot of RAF-MEK-ERK pathway in H460, A375, BT-474 and H1975 cells; format: cell-based; details: 100 nM, 16 hours
# Procedure: Cell extracts were prepared in the presence of SDS and 2-mercaptoethanol and resolved in polyacrylamide gels. Proteins were transferred to nitrocellulose filter and blotting was done using standard procedures with blocking solutions (Li-Cor Bioscience) containing the indicated primary antibody. Primary antibodies against p-EGFR, EGFR, p-HER2, HER2, p-HER3, HER3, p-MET, MET, p-bRaf, p-cRaf, pMEK, MEK, p-ERK, ERK and tubulin were purchased from Cell Signaling Technology. Secondary antibody conjugated with IRdye 680, 800CW were used and the signal was detected with Li-Cor Odyssey Imager.
# One major limitation of PI3K inhibitors in the treatment of cancers is the activation of the RAF-MEK-ERK pathway. HDAC inhibitors are able to inhibit kinase levels in this signaling pathway in cancer cells via epigenetic modification.
# [3] = −S9, positive control 0.4 μg/well
# [4] = −S9, positive control 2.0 μg/well
# [5] = +S9, positive control 0.8 μg/well
smiles,measurement,setting,value
"O=[N+]([O-])c1ccc2c(c1)Cc1ccccc1-2 [2-nitrofluorene, reference compound]",Background Lawn TA98,[1]; [3],4/4
same,"Revertants per well TA98, well 1",[1]; [3],55
same,"Revertants per well TA98, well 2",[1]; [3],63
same,"Revertants per well TA98, Mean",[1]; [3],59*
"[N-]=[N+]=[N-] [Sodium azide, reference compound]",Background Lawn TA100,[2]; [4],4/4
same,"Revertants per well TA100, well 1",[2]; [4],>300
same,"Revertants per well TA100, well 2",[2]; [4],>300
same,"Revertants per well TA100, Mean",[2]; [4],>300*
"Nc1ccc2cc3ccccc3cc2c1 [2-aminoanthracene, reference compound]",Background Lawn TA98,[1]; [5],4/4
same,"Revertants per well TA98, well 1",[1]; [5],>300
same,"Revertants per well TA98, well 2",[1]; [5],>300
same,"Revertants per well TA98, Mean",[1]; [5],>300*
same,Background Lawn TA100,[2]; [5],4/4
same,"Revertants per well TA100, well 1",[2]; [5],>300
same,"Revertants per well TA100, well 2",[2]; [5],>300
same,"Revertants per well TA100, Mean",[2]; [5],>300*
"Cc1[nH]c2ccccc2c1CCNCc1ccc(/C=C/C(=O)NO)cc1 [LBH 589, reference compound]","Activation of Raf, MEK, and ERK","Raf, MEK, and ERK",showed similar activities in some of these Western blot assays
